Converted amounts (≈) assume the structure as drawn. Read-outs that look alike come from different tables or passages of the source. Non-standard residues stand in square brackets, D forms with d. Residues, ends and D or L forms follow the SMILES beside them. Bip = N[C@@H](Cc1ccc(-c2ccccc2)cc1)C(=O)O; 1Nal = N[C@@H](Cc1cccc2ccccc12)C(=O)O; 2Nal = N[C@@H](Cc1ccc2ccccc2c1)C(=O)O
Experiments:
[1] = tested on: E. coli; type: cell-based, Escherichia coli
Protocol: (§1) The in vitro antimicrobial activities of antimicrobial agents were tested using standard NCCLS bacterial and fungi inhibition assays or minimum inhibition concentration (MIC) tests. The MIC value is the lowest concentration of peptide at which the visible growth of test organisms was inhibited and reduced. Overnight cultures of the test organisms were diluted to produce an inoculum containing approximately […] in Meuller-Hinton broth (MHB). From the peptide stock solution, serial dilutions of the peptides into […] were prepared and all wells of a 96-well microtiter plate were subsequently inoculated with the diluted culture of the test organisms. After 18 hours of incubation at 37°, the results were assayed for turbidity as an indicator of cell growth. MIC values for the peptides are shown in Table 3 and Table 4 and FIGS. 1(A), 1(B), 1 (C) and 1 (D) show survival rates for Pac-625 and Pac-626.

[2] = tested on: S. aureus; type: cell-based, Staphylococcus aureus
Protocol: as §1

[3] = tested on: B. cereus; type: cell-based, Bacillus cereus
Protocol: as §1

[4] = tested on: Candida albicans; type: cell-based
Protocol: as §1

[5] = tested on: outer membrane of E. coli; assay: NPN uptake assay, outer membrane permeabilization; type: cell-based; conditions: intact cells of E. coli
Protocol: The outer membrane permeabilization activity of the peptide variants was determined by the 1-N-phenylnaphthylamine (NPN) uptake assay, using intact cells of E. coli. […] Since NPN is hydrophobic, it provides a direct measurement of the degree of outer membrane permeability. E. coli take up little or no NPN in a general condition. In the presence of permeabilizer compounds (EDTA, polymyxin B, Neomycin, or antimicrobial peptides), NPN partitioned into the bacterial outer membrane results in an increase in fluorescence. Fluorescence will vary with the concentration of peptide.
One ml of overnight culture was used to inoculate 50 ml of media and incubated at 37° C. with shaking. The culture was permitted to grow to an OD600 of 0.4 to 0.6, cells were spun down at 3500 rpm for 10 minutes, washed, and re-suspended in buffer to an OD600 of 0.5. The OD600 was recorded, 1 ml of cells (OD600=0.5) was added to the cuvette and measured after 2-5 seconds. 20 μl NPN 0.5 mM, shaken to mix, was added and measured after 2-5 seconds. 10 ul antibiotic 100× desired final concentration was added, shaken to mix, and measured until the maximal value was reached within 1 to 5 minutes. The concentration of peptide leading to 50% of the maximum increase in NPN uptake was recorded as the P50.

[6] = tested on: human red blood cells (RBC); type: cell-based
Protocol: Pac-401, Pac-403, Pac-625 and Pac-626 were tested for hemolysis against human red blood cells (RBC). The RBCs with EDTA were rinsed 3 times with PBS (800 g, 10 min) and re-suspended in PBS. The RBCs were diluted into 10% with phosphate-buffered saline and placed […] into each eppendorf. The peptides dissolved in PBS were then added to 50 μl of 10% solution of RBCs and incubated for an hour at 37° C. (final RBC concentration, 5% v/v). The samples were centrifuged at 800 g for 10 min […]. Various concentrations of peptides were incubated with pretreated RBC and the percentage of hemolysis determined.

[7] = tested on: Gram-positive and Gram-negative bacteria; assay: Antimicrobial activity of Trp template peptides; type: cell-based; conditions: qualitative statement
[8] = qualitative statement
[9] = tested on: B. subtilis; type: cell-based, Bacillus subtilis
Protocol: as §1

[10] = tested on: S. epidermidis; type: cell-based, Staphylococcus epidermidis
Protocol: as §1

MIC against E. coli [1] [µg/mL] | MIC against E. coli ([1]; 18 h) [µg/mL] | MIC against S. aureus [2] [µg/mL] | MIC against S. aureus ([2]; 18 h) [µg/mL] | % lysis @ 5 μg/ml [6] [%] | % lysis @ 50 μg/ml [6] [%] | % lysis @ 500 μg/ml [6] [%] | SMILES | P50 (concentration of peptide leading to 50% of the maximum increase in NPN uptake) [5] [µg/mL] | also measured
4 (≈ 2.74 µM) | 4 (≈ 2.74 µM) | 4 (≈ 2.74 µM) | 4 (≈ 2.74 µM) | 0.81 | 7.2 | 14 | CC[C@H](C)[C@H](NC(C)=O)C(=O)N[C@@H](Cc1ccc2ccccc2c1)C(=O)N[C@@H](CCCNC(=N)N)C(=O)N[C@H](C(=O)N[C@@H](Cc1ccc2ccccc2c1)C(=O)N[C@@H](CCCNC(=N)N)C(=O)N[C@@H](CCCNC(=N)N)C(=O)N[C@@H](Cc1ccc2ccccc2c1)C(=O)N[C@@H](CCCCN)C(N)=O)C(C)C [Pac-626 L, I (2-Nal) R V (2-Nal) R R (2-Nal) K] (Ac-I[2Nal]RV[2Nal]RR[2Nal]K-NH2) | 2 | MIC S. aureus [2]: 4 µg/mL (≈ 2.74 µM); MIC B. cereus [3]: 4 µg/mL (≈ 2.74 µM); MIC Candida albicans [4]: 32 µg/mL (≈ 21.9 µM)
2 (≈ 1.3 µM) | 2 (≈ 1.3 µM) | 4 (≈ 2.6 µM) | 4 (≈ 2.6 µM) | – | – | – | CC[C@H](C)[C@H](NC(=O)[C@H](Cc1ccc(-c2ccccc2)cc1)NC(=O)[C@H](CCCNC(=N)N)NC(=O)[C@@H](NC(=O)[C@H](Cc1ccc(-c2ccccc2)cc1)NC(=O)[C@H](CCCNC(=N)N)NC(=O)[C@H](CCCNC(=N)N)NC(=O)[C@H](Cc1ccc(-c2ccccc2)cc1)NC(=O)[C@H](CCCCN)NC(C)=O)C(C)C)C(N)=O [Pac-628 L, K (Bip) R R (Bip) V R (Bip) I] (Ac-K[Bip]RR[Bip]VR[Bip]I-NH2) | 4 | –
– | – | – | – | – | – | – | CC[C@H](C)[C@H](NC(=O)[C@H](Cc1c[nH]c2ccccc12)NC(=O)[C@H](CCCNC(=N)N)NC(=O)[C@@H](NC(=O)[C@H](Cc1c[nH]c2ccccc12)NC(=O)[C@H](CCCNC(=N)N)NC(=O)[C@H](CCCNC(=N)N)NC(=O)[C@H](Cc1c[nH]c2ccccc12)NC(=O)[C@H](CCCCN)NC(C)=O)C(C)C)C(N)=O [Pac-525, Ac-KWRRWVRW1-NH2] (Ac-KWRRWVRWI-NH2) | – | antimicrobial activity [7]: improved activity against both Gram-positive and Gram-negative bacteria; hemolytic activity [8]: reduced hemolytic activity
– | 24 (≈ 24.5 µM) | – | 16 (≈ 16.3 µM) | 0.74 | 7.2 | 15 | CC[C@H](C)[C@H](NC(=O)[C@H](Cc1ccc2ccccc2c1)NC(=O)[C@H](CCCCN)NC(C)=O)C(=O)N[C@@H](CCCCN)C(=O)N[C@@H](Cc1ccc2ccccc2c1)C(=O)N[C@@H](CCCNC(=N)N)C(N)=O [Pac-403 L, K (2-Nal) I K (2-Nal) R] (Ac-K[2Nal]IK[2Nal]R-NH2) | – | –
– | 24 (≈ 24.2 µM) | – | 16 (≈ 16.1 µM) | – | – | – | CC(=O)N[C@@H](CCCCN)C(=O)N[C@@H](Cc1ccc2ccccc2c1)C(=O)N[C@@H](CCCNC(=N)N)C(=O)N[C@@H](CCCNC(=N)N)C(=O)N[C@@H](Cc1ccc2ccccc2c1)C(=O)N[C@H](C(N)=O)C(C)C [Pac-402 L, K (2-Nal) R R (2-Nal) V] (Ac-K[2Nal]RR[2Nal]V-NH2; N-terminus and C-terminus assumed) | 16 | –
– | – | – | – | – | – | – | CC[C@H](C)[C@H](NC(C)=O)C(=O)N[C@@H](Cc1c[nH]c2ccccc12)C(=O)N[C@@H](CCCNC(=N)N)C(=O)N[C@H](C(=O)N[C@@H](Cc1c[nH]c2ccccc12)C(=O)N[C@@H](CCCNC(=N)N)C(=O)N[C@@H](CCCNC(=N)N)C(=O)N[C@@H](Cc1c[nH]c2ccccc12)C(=O)N[C@@H](CCCCN)C(N)=O)C(C)C [Pac-525rev, Ac-IWRVWRRWK-NH2] (Ac-IWRVWRRWK-NH2) | – | hemolytic activity [8]: very similar to that of Pac-525
4 (≈ 2.74 µM) | 4 (≈ 2.74 µM) | 4 (≈ 2.74 µM) | 4 (≈ 2.74 µM) | – | – | – | CC[C@H](C)[C@H](NC(=O)[C@H](Cc1cccc2ccccc12)NC(=O)[C@H](CCCNC(=N)N)NC(=O)[C@@H](NC(=O)[C@H](Cc1cccc2ccccc12)NC(=O)[C@H](CCCNC(=N)N)NC(=O)[C@H](CCCNC(=N)N)NC(=O)[C@H](Cc1cccc2ccccc12)NC(=O)[C@H](CCCCN)NC(C)=O)C(C)C)C(N)=O [Pac-627 L, K (1-Nal) R R (1-Nal) V R (1-Nal) I] (Ac-K[1Nal]RR[1Nal]VR[1Nal]I-NH2) | – | –
8 (≈ 5.82 µM) | – | 16 (≈ 11.6 µM) | – | – | – | – | CC[C@H](C)[C@H](NC(=O)[C@H](Cc1ccc2ccccc2c1)NC(=O)[C@H](CCCCN)NC(=O)[C@@H](NC(=O)[C@H](Cc1ccc2ccccc2c1)NC(=O)[C@H](CCCCN)NC(=O)[C@@H](NC(=O)[C@H](Cc1ccc2ccccc2c1)NC(=O)[C@H](CCCCN)NC(C)=O)[C@@H](C)CC)[C@@H](C)CC)C(N)=O [Pac-621, Ac-K(2-Nal) IK(2-Nal) IK(2-Nal) I-NH2] (Ac-K[2Nal]IK[2Nal]IK[2Nal]I-NH2) | – | –
– | 16 (≈ 15.9 µM) | – | 8 (≈ 7.94 µM) | 0.85 | 6.8 | 14 | CC[C@H](C)[C@H](NC(=O)[C@H](Cc1ccc2ccccc2c1)NC(=O)[C@H](CCCNC(=N)N)NC(=O)[C@H](CCCNC(=N)N)NC(=O)[C@H](Cc1ccc2ccccc2c1)NC(=O)[C@H](CCCCN)NC(C)=O)C(N)=O [Pac-401 L, K (2-Nal) R R (2-Nal) I] (Ac-K[2Nal]RR[2Nal]I-NH2) | – | –
2 (≈ 1.37 µM) | 2 (≈ 1.37 µM) | 4 (≈ 2.74 µM) | 4 (≈ 2.74 µM) | 0.82 | 7.3 | 15 | CC[C@H](C)[C@H](NC(=O)[C@H](Cc1ccc2ccccc2c1)NC(=O)[C@H](CCCNC(=N)N)NC(=O)[C@@H](NC(=O)[C@H](Cc1ccc2ccccc2c1)NC(=O)[C@H](CCCNC(=N)N)NC(=O)[C@H](CCCNC(=N)N)NC(=O)[C@H](Cc1ccc2ccccc2c1)NC(=O)[C@H](CCCCN)NC(C)=O)C(C)C)C(N)=O [Pac-625 L, K (2-Nal) R R (2-Nal) V R (2-Nal) I] (Ac-K[2Nal]RR[2Nal]VR[2Nal]I-NH2) | 2 | MIC B. subtilis [9]: 4 µg/mL (≈ 2.74 µM); MIC S. epidermidis [10]: 2 µg/mL (≈ 1.37 µM); MIC Candida albicans [4]: 16 µg/mL (≈ 11 µM)

From patent publication US20060128614A1, “Antimicrobial peptides with reduced hemolysis and methods of their use” (priority 2002, published 2006)
